Data reported in US20220220095A1, “N-((HETEROARYL)METHYL)-1-TOSYL-1H-PYRAZOLE-3-CARBOXAMIDE DERIVATIVES AS Kv3 POTASSIUM CHANNEL ACTIVATORS FOR TREATING NEUROLOGICAL AND [sequence] DISORDERS” (H. Lundbeck A/S, priority 2019, published 2022).

Target: T1, hKv3.1b (Homo sapiens, UniProt P48547)
T1 construct: expressed in transfected cells
T1 sequence (P48547 1-585 isoform P48547-2): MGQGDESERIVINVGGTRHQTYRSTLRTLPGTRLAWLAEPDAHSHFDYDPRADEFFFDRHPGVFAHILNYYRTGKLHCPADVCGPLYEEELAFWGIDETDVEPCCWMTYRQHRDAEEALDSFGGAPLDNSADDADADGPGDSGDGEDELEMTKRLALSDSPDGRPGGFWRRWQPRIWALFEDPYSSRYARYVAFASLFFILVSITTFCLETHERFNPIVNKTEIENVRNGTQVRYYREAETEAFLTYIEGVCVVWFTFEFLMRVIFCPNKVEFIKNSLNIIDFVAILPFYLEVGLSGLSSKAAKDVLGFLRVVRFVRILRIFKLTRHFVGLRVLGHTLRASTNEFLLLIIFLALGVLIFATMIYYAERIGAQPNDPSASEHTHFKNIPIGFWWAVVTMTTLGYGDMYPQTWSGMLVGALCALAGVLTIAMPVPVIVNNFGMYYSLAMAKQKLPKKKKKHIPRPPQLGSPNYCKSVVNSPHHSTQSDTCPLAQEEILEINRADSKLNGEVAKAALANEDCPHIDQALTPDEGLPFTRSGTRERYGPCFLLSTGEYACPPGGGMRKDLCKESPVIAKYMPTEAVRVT
Test: Automated whole-cell patch-clamp (QPatch-16x) on HEK-293 cells stably expressing hKv3.1b: shift of voltage threshold for channel activation
Type: cell-based
Conditions: HEK-293 hKv3.1b; for ECdelta5mV: concentration needed to shift the threshold 5 mV, read out from fitted concentration response curve; for Max Delta threshold: maximum absolute shift of activation threshold to more hyperpolarized potentials at the tested concentrations (0.37, 1.11, 3.33, 10, 30 μM)
Experimental: HEK-293 cells stably expressing hKv3.1b was used for the experiments. Cells were cultured in DMEM medium supplemented with 10% Fetal Bovine Serum, 100 ug/mL Geneticidin and 100 u/mL Penicillin/Streptomycin (all from Gibco). Cells were grown to 80-90% confluency at 37° C. and 5% CO2. On the day of the experiment the cells were detached from the tissue culture flasks by Detachin and resuspended in serum free medium containing 25 mM HEPES and transferred to the cell hotel of the QPatch. The cells were used for experiments 0-5 hours after detachment.
Patch-clamp recordings were performed using the automated recording system QPatch-16x (Sophion Bioscience, Denmark). Cells were centrifuged, SFM removed and the cells were resuspended in extracellular buffer containing (in mM): 145 NaCl, 4 KCl, 1 MgCl2, 2 CaCl2, 10 HEPES and 10 glucose (added fresh on the day of experiment); pH 7.4 adjusted with NaOH, 305 mOsm adjusted with sucrose.
Single cell whole-cell recordings were carried out using an intracellular solution containing (in mM): 120 KCl, 32.25/10 KOH/EGTA, 5.374 CaCl2, 1.75 MgCl2, 10 HEPES, 4 Na2ATP (added fresh on the day), pH 7.2 adjusted with KOH, […] adjusted with sucrose. Cell membrane potentials were held at −80 mV and currents were evoked by voltage steps (200 ms duration) from −70 mV to +10 mV (in 10 mV increments).
Leak subtraction protocol was applied at −33% of the sweep amplitude, and serial resistance values were constantly monitored.
Any cell where serial resistance exceeded 25 MOhm, membrane resistance less than 200 MOhm or current size at −10 mV less than 200 pA was eliminated from the subsequent analysis.
Data analysis was performed using Sophion's QPatch assay software in combination with Microsoft Excel™ (Redmond, Wash., USA).
Current voltage relationships were plotted from the peak current at the individual voltage steps normalized to the vehicle addition at 10 mV. The voltage threshold for channel activation was defined as 5% activation of the peak current at 10 mV in presence of vehicle. The activity of the compounds was described as the ability to shift this current voltage relationship to more hyperpolarized potentials and is given as the maximum absolute shift possible at the tested concentrations (0.37, 1.11, 3.33, 10, 30 μM). Concentration response curves were plotted from the threshold shift at the individual concentrations and were fitted excel fit model 205 sigmodal dose-response model (fit=A+((B−A)/1+((C/x)^D)))), where A is the minimum value, B the maximum value, C the EC50 value and D the slope of the curve. The concentration needed to shift the threshold 5 mV was readout from this curve (ECdelta 5 mV).

Row | SMILES | ECdelta5mV [nM] | Max Delta threshold [mV]
1 | Cc1cccc(S(=O)(=O)n2ccc(C(=O)NCc3ncc(C)o3)n2)c1 [Compound 18, 1-(3-methylbenzene-1-sulfonyl)-N-[(5-methyl-1,3-oxazol-2-yl)methyl]-1H-pyrazole-3-carboxamide] | 7300 | 13
2 | COc1ccc(S(=O)(=O)n2ccc(C(=O)NCc3nc(C)no3)n2)cc1 [Compound 42, 1-(4-methoxybenzene-1-sulfonyl)-N-[(3-methyl-1,2,4-oxadiazol-5-yl)methyl]-1H-pyrazole-3-carboxamide] | 2000 | 18
3 | Cc1cccc(S(=O)(=O)n2ccc(C(=O)NCc3ccn(C)n3)n2)c1 [Compound 22, 1-(3-methylbenzene-1-sulfonyl)-N-[(1-methyl-1H-pyrazol-3-yl)methyl]-1H-pyrazole-3-carboxamide] | 3700 | 14
4 | Cc1cc(CNC(=O)c2ccn(S(=O)(=O)c3ccc(F)cc3)n2)on1 [Compound 31, 1-(4-fluorobenzene-1-sulfonyl)-N-[(3-methyl-1,2-oxazol-5-yl)methyl]-1H-pyrazole-3-carboxamide] | 4100 | 13
5 | Cc1ccc(CNC(=O)c2ccn(S(=O)(=O)c3cccc(C)c3)n2)nc1 [Compound 20, 1-(3-methylbenzene-1-sulfonyl)-N-[(5-methylpyridin-2-yl)methyl]-1H-pyrazole-3-carboxamide] | 3900 | 12
6 | Cc1ccc(S(=O)(=O)n2ccc(C(=O)NCc3ncc(C)cn3)n2)cc1 [Compound 15, 1-(4-methylbenzene-1-sulfonyl)-N-[(5-methylpyrimidin-2-yl)methyl]-1H-pyrazole-3-carboxamide] | 2600 | 23
7 | Cc1ccc(CNC(=O)c2ccn(S(=O)(=O)c3ccc(F)cc3)n2)nc1 [Compound 34, 1-(4-fluorobenzene-1-sulfonyl)-N-[(5-methylpyridin-2-yl)methyl]-1H-pyrazole-3-carboxamide] | 2800 | 17
8 | COc1ccc(S(=O)(=O)n2ccc(C(=O)NCc3cocn3)n2)cc1 [Compound 12, 1-(4-methoxybenzene-1-sulfonyl)-N-[(1,3-oxazol-4-yl)methyl]-1H-pyrazole-3-carboxamide] | 3800 | 16
9 | Cc1cc(CNC(=O)c2ccn(S(=O)(=O)c3ccccc3C)n2)on1 [Compound 29, 1-(2-methylbenzene-1-sulfonyl)-N-[(3-methyl-1,2-oxazol-5-yl)methyl]-1H-pyrazole-3-carboxamide] | 3100 | 22
10 | Cc1cnc(CNC(=O)c2ccn(S(=O)(=O)c3ccccc3C)n2)nc1 [Compound 25, 1-(2-methylbenzene-1-sulfonyl)-N-[(5-methylpyrimidin-2-yl)methyl]-1H-pyrazole-3-carboxamide] | 6500 | 13
11 | COc1ccc(S(=O)(=O)n2ccc(C(=O)NCc3cc(C)no3)n2)cc1 [Compound 38, 1-(4-methoxybenzene-1-sulfonyl)-N-[(3-methyl-1,2-oxazol-5-yl)methyl]-1H-pyrazole-3-carboxamide] | 1100 | 21
12 | Cc1ccc(S(=O)(=O)n2ccc(C(=O)NCc3cnsc3)n2)cc1 [Compound 33, 1-(4-methylbenzene-1-sulfonyl)-N-[(1,2-thiazol-4-yl)methyl]-1H-pyrazole-3-carboxamide] | 2800 | 12
13 | COc1ccc(S(=O)(=O)n2ccc(C(=O)NCc3cnccn3)n2)cc1 [Compound 43, 1-(4-methoxybenzene-1-sulfonyl)-N-[(pyrazin-2-yl)methyl]-1H-pyrazole-3-carboxamide] | 1600 | 25
14 | COc1ccc(S(=O)(=O)n2ccc(C(=O)NCc3ccno3)n2)cc1 [Compound 10, 1-(4-methoxybenzene-1-sulfonyl)-N-[(1,2-oxazol-5-yl)methyl]-1H-pyrazole-3-carboxamide] | 3400 | 17
15 | Cc1cccc(S(=O)(=O)n2ccc(C(=O)NCc3cc(C)no3)n2)c1 [Compound 19, 1-(3-methylbenzene-1-sulfonyl)-N-[(3-methyl-1,2-oxazol-5-yl)methyl]-1H-pyrazole-3-carboxamide] | 2400 | 17

Other lines, results leading:

Row | ECdelta5mV [nM] | Max Delta threshold [mV] | SMILES
16 | 3200 | 17 | COc1ccc(S(=O)(=O)n2ccc(C(=O)NCc3cnc(C)cn3)n2)cc1F [Compound 74, 1-(3-fluoro-4-methoxy-phenyl)sulfonyl-N-[(5-methylpyrazin-2-yl)methyl]pyrazole-3-carboxamide]
17 | 1800 | 20 | Cc1ccc(S(=O)(=O)n2ccc(C(=O)NCc3ccno3)n2)cc1 [Compound 55, 1-(4-methylbenzene-1-sulfonyl)-N-[(1,2-oxazol-5-yl)methyl]-1H-pyrazole-3-carboxamide]
18 | 2400 | 21 | Cc1ccc(S(=O)(=O)n2ccc(C(=O)NCc3cncnc3)n2)cc1 [Compound 54, 1-(4-methylbenzene-1-sulfonyl)-N-[(pyrimidin-5-yl)methyl]-1H-pyrazole-3-carboxamide]
19 | 1500 | 31 | Cc1ccc(S(=O)(=O)n2ccc(C(=O)NCc3cnc(C)cn3)n2)c(F)c1 [Compound 80, 1-(2-fluoro-4-methyl-phenyl)sulfonyl-N-[(5-methylpyrazin-2-yl)methyl]pyrazole-3-carboxamide]
20 | 1500 | 16 | Cc1ccc(S(=O)(=O)n2ccc(C(=O)NCc3cscn3)n2)cc1 [Compound 52, 1-(4-methylbenzene-1-sulfonyl)-N-[(1,3-thiazol-4-yl)methyl]-1H-pyrazole-3-carboxamide]
21 | 990 | 32 | Cc1cnc(CNC(=O)c2ccn(S(=O)(=O)c3ccc(C4CC4)cc3)n2)cn1 [Compound 79, 1-(4-cyclopropylphenyl)sulfonyl-N-[(5-methylpyrazin-2-yl)methyl]pyrazole-3-carboxamide]
22 | 3200 | 17 | Cc1cnc(CNC(=O)c2ccn(S(=O)(=O)c3cccc(Cl)c3)n2)cn1 [Compound 75, 1-(3-chlorophenyl)sulfonyl-N-[(5-methylpyrazin-2-yl)methyl]pyrazole-3-carboxamide]
23 | 2000 | 19 | Cc1ccc(S(=O)(=O)n2ccc(C(=O)NCc3cocn3)n2)cc1 [Compound 49, 1-(4-methylbenzene-1-sulfonyl)-N-[(1,3-oxazol-4-yl)methyl]-1H-pyrazole-3-carboxamide]
24 | 1600 | 24 | COc1ccc(S(=O)(=O)n2ccc(C(=O)NCc3cccnc3)n2)cc1 [Compound 64, 1-(4-methoxyphenyl)sulfonyl-N-(3-pyridylmethyl)pyrazole-3-carboxamide]
25 | 2400 | 42 | COc1ccc(S(=O)(=O)n2ccc(C(=O)NCc3cnc(C)cn3)n2)c(F)c1 [Compound 68, 1-(2-fluoro-4-methoxy-phenyl)sulfonyl-N-[(5-methylpyrazin-2-yl)methyl]pyrazole-3-carboxamide]
